Source: patent US8614202B2, “2α-methyl and 2β-methyl analogs of 19,26,27-trinor-(20S)-1α-hydroxyvitamin D3 and their uses” (Wisconsin Alumni Research Foundation, priority 2004, dated 2013)

Assays:
[1] = Bone calcium mobilization (serum calcium) in vitamin D-deficient rats; format: in vivo, Sprague-Dawley rats
Protocol: Male, weanling Sprague-Dawley rats were placed on Diet 11 (0.47% Ca) diet+AEK for one week followed by Diet 11 (0.02% Ca)+AEK for 3 weeks. The rats were then switched to a diet containing 0.47% Ca for one week followed by two weeks on a diet containing 0.02% Ca. Dose administration began during the last week on 0.02% calcium diet. Four consecutive ip doses were given approximately 24 hours apart. Twenty-four hours after the last dose, blood was collected from the severed neck and the concentration of serum calcium determined as a measure of bone calcium mobilization. The first 10 cm of the intestine was also collected for intestinal calcium transport analysis using the everted gut sac method.
Calcium mobilization from bone in vitamin D-deficient animals.

[2] = test system: 24-hydroxylase (24Ohase) gene promoter in ROS 17/2.8 (bone) cells; test: In vitro transcription assay (24-hydroxylase promoter luciferase reporter); format: cell-based; conditions: ROS 17/2.8 cells, 24Ohase-luciferase, sixteen hours after dosing; read-out: EC50, transcriptional activity in bone cells
Protocol: In Vitro Transcription Assay
Transcription activity was measured in ROS 17/2.8 (bone) cells that were stably transfected with a 24-hydroxylase (24Ohase) gene promoter upstream of a luciferase reporter gene (Arbour et al., 1998). Cells were given a range of doses. Sixteen hours after dosing the cells were harvested and luciferase activities were measured using a luminometer. • RLU=relative luciferase units. Intestinal Calcium Transport and Bone Calcium Mobilization

[3] = test system: Human promyelocytic leukemia (HL60) cells; test: HL-60 differentiation (nitro blue tetrazolium reduction); format: cell-based; conditions: four days after treatment
Protocol: The study drugs were dissolved in ethanol and the concentrations determined using UV spectrophotometry. Serial dilutions were prepared so that a range of drug concentrations could be tested without changing the final concentration of ethanol (≦0.2%) present in the cell cultures.
Human promyelocytic leukemia (HL60) cells were grown in RPMI-1640 medium containing 10% fetal bovine serum. The cells were incubated at 37° C. in the presence of 5% CO2.
HL60 cells were plated at 1.2×10^5 cells/ml. Eighteen hours after plating, cells in duplicate were treated with drug. Four days later, the cells were harvested and a nitro blue tetrazolium reduction assay was performed (Collins et al., 1979; J. Exp. Med. 149:969-974). The percentage of differentiated cells was determined by counting a total of 200 cells and recording the number that contained intracellular black-blue formazan deposits. Verification of differentiation to monocytic cells was determined by measuring phagocytic activity (data not shown).

[4] = target: T1, full-length recombinant rat vitamin D receptor (Rattus norvegicus, UniProt P13053); test: Vitamin D receptor binding, competition with [3H]-1,25(OH)2D3; conditions: full-length recombinant rat VDR; 1 nM radioligand
T1 construct: Full-length recombinant rat receptor was expressed in E. coli BL21 (DE3) Codon Plus RIL cells; histidine tag (C); made in house; host or cells: E. coli BL21 (DE3) Codon Plus RIL
T1 sequence (P13053 1-423): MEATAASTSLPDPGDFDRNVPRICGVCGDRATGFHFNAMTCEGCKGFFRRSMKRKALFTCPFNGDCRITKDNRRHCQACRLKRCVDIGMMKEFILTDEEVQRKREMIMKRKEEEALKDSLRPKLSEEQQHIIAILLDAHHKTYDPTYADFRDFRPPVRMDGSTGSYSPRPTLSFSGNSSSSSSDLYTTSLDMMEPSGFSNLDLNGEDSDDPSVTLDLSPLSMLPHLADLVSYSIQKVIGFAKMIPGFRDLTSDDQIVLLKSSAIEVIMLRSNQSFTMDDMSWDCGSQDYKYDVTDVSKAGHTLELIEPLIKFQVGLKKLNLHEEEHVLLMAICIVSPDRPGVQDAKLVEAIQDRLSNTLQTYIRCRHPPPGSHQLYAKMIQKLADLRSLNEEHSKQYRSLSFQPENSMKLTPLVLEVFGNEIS
Source text: Vitamin D Receptor Binding
Full-length recombinant rat receptor was expressed in E. coli BL21 (DE3) Codon Plus RIL cells and purified to homogeneity using two different column chromatography systems. The first system was a nickel affinity resin that utilizes the C-terminal histidine tag on this protein. The protein that was eluted from this resin was further purified using ion exchange chromatography (S-Sepharose Fast Flow). Aliquots of the purified protein were quick frozen in liquid nitrogen and stored at −80° C. until use. For use in binding assays, the protein was diluted in TEDK50 (50 mM Tris, 1.5 mM EDTA, pH7.4, 5 mM DTT, 150 mM KCl) with 0.1% Chaps detergent. The receptor protein and ligand concentration were optimized such that no more than 20% of the added radiolabeled ligand was bound to the receptor.
Radiolabeled and unlabeled ligands were added to 100 mcl of the diluted protein at a final ethanol concentration of ≦10%, mixed and incubated overnight on ice to reach binding equilibrium. The following day, 100 mcl of hydroxylapatite slurry (50%) was added to each tube and mixed at 10-minute intervals for 30 minutes. The hydroxylapaptite was collected by centrifugation and then washed three times with Tris-EDTA buffer (50 mM Tris, 1.5 mM EDTA, pH 7.4) containing 0.5% Titron X-100. […] Total binding was determined from the tubes containing only radiolabeled ligand.

[5] = low calcium diet (0.02%), four consecutive ip doses, overall / all dosages

Row | EC50 [2] [nM] | EC50 [3] [nM] | Ki [4] [nM] | Compound | calcium mobilization from bone (serum calcium) ([1]; 0.02% Ca diet, 780 pmol/day for 4 consecutive days) | calcium mobilization from bone (serum calcium) ([1]; 0.02% Ca diet, 2340 pmol/day) | calcium mobilization from bone (serum calcium) ([1]; 0.02% Ca diet, 7020 pmol/day) | calcium mobilization from bone (serum calcium) [1, 5]
1 | 10 | 8.2 | 0.22 | CCCCC(C)C1CCC2C(=CC=C3CC(O)C(C)C(O)C3)CCCC21C (single isomer, unassigned) [C-19] | did not result in mobilization of bone calcium | without any substantial effect | without any substantial effect | little, if any, activity in mobilizing calcium from bone
2 | 100 | 100 | 10 | CCCCC(C)C1CCC2C(=CC=C3CC(O)C(C)C(O)C3)CCCC21C (single isomer, unassigned) [N-16] | – | – | – | –

Row | Compound | EC50 [2] [nM] | EC50 [3] [nM] | Ki [4] [nM] | calcium mobilization from bone (serum calcium) ([1]; 0.02% Ca diet, 780 pmol/day for 4 consecutive days) | calcium mobilization from bone (serum calcium) ([1]; 0.02% Ca diet, 2340 pmol/day) | calcium mobilization from bone (serum calcium) ([1]; 0.02% Ca diet, 7020 pmol/day) | calcium mobilization from bone (serum calcium) [1, 5]
3 | C=C1/C(=C\C=C2/CCC[C@]3(C)[C@@H]([C@H](C)CCCC(C)(C)O)CC[C@@H]23)C[C@@H](O)C[C@@H]1O [1,25(OH)2D3, 1α,25-dihydroxyvitamin D3, reference compound] | – | 2.9 | – | – | – | – | increased serum calcium levels at all dosages
